The values that follow come from patent US4320134A, “Inhibiton of thromboxane synthetase with 1-substituted imidazole compounds” (Ono Pharmaceutical Co., Ltd., priority 1978, dated 1982).

Structures can show the parent of a compound that is named as a salt.

Data set [1] has as its target T1, thromboxane synthetase (Oryctolagus cuniculus, UniProt G1TAZ9).
T1 construct: from tissue; host or cells: rabbit platelets (microsomes)
T1 sequence (G1TAZ9 1-530): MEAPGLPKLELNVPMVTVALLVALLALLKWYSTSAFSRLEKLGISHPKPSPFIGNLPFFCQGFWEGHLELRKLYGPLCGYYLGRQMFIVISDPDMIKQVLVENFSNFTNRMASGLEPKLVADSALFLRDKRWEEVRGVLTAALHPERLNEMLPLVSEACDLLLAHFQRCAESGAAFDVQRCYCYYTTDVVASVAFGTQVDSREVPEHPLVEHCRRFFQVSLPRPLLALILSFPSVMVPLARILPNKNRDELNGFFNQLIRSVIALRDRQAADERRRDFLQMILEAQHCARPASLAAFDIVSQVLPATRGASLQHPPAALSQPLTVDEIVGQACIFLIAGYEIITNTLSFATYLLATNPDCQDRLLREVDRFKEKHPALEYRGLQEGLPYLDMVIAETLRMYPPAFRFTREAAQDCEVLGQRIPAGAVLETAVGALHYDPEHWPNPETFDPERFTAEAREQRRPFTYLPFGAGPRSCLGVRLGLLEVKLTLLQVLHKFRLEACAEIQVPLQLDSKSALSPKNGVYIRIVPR
In words: Inhibitory potency of imidazole compounds on thromboxane synthetase (conversion of prostaglandin H2 to thromboxane B2 by rabbit platelet microsomes). In kind it is biochemical. The conditions noted are these: 24° C., 1 minute. The protocol: (1-C^14)-Prostaglandin H2, obtained by the enzymatic biosynthesis with ram seminal vesicle microsomes and (1-C^14)-arachidonic acid, was incubated with rabbit platelet microsomes containing 0.025 μM and 0.5 μM of the test compound at 24° C. for 1 minute. The termination of the reaction and the extraction of a radioactive materials were carried out by the addition of a mixture of ethyl acetate/methanol/0.2 M citric acid (30:4:1 by volume). […] A spot of thromboxane B2 was counted by a packard Radiochromatogram Scanner.

Data set [2] relates to thromboxane synthetase. The conditions noted are these: in words; reported in the literature; cited from earlier work.
Data set [3] is described as follows: Acute toxicity (LD50), intravenous, mice. The conditions noted are these: mouse, in vivo, dd-stain male mice, 7 weeks old, Behrens-Karber method, read-out: median lethal dose (LD50). Here is the method: The median lethal dose (LD50) of N-(7-carboxyheptyl)imidazole and N-(6-methoxycarbonylhexyl)imidazole (known compound) were determined in dd-stain male mice (7 weeks old) by intravenous administration. The LD50 values were calculated according to the Behrens-Karber method.

The subject of data set [4] is thromboxane synthetase. The data set can be described thus: Inhibitory effect on thromboxane synthetase, general statements. In kind it is biochemical. The conditions noted are these: in words.

For `O=C(O)CCCCCCCn1ccnc1` [1-(7-Carboxyheptyl)imidazole Hydrochloride], on thromboxane synthetase [1], the inhibition at 0.025 µM is 31.2% and the inhibition at 0.5 µM was 89%.
With `Cn1ccnc1` [1-methylimidazole], the “inhibitory action for thromboxane synthetase” value with thromboxane synthetase [2] was “weak”.
In the case of `O=C(O)CCCCCCn1ccnc1` [N-(6-carboxyhexyl)imidazole hydrochloride], at thromboxane synthetase [1], the inhibition at 0.025 µM was 10.1% and testing at 0.5 µM gave an inhibition of 76.1%.
For the compound `COC(=O)CCCCCCn1ccnc1` [N-(6-methoxycarbonylhexyl)imidazole, reference compound], at thromboxane synthetase [1], the inhibition at 0.025 µM was 5.5% and the inhibition at 0.5 µM turned out to be 25.7%. In data set [3], the 50% lethal dose (LD50) amounted to 140 mg/kg. In addition, in the data set with thromboxane synthetase [4], the “inhibitory effect on thromboxane synthetase compared with imidazole or 1-methylimidazole” value is “stronger inhibitory effect” and the “inhibitory effect on thromboxane synthetase, suitability as medication” value is on record as “not completely satisfactory as a practical medication”.
Turning to `O=C(O)CCCCCCCn1ccnc1` [N-(7-carboxyheptyl)imidazole, 1-(7-Carboxyheptyl)imidazole], in data set [3], the LD50 came to 560 mg/kg.
For `O=C(O)CCCCCCCCn1ccnc1` [N-(8-carboxyoctyl)imidazole hydrochloride], at thromboxane synthetase [1], testing at 0.025 µM gave an inhibition of 42.2% and testing at 0.5 µM gave an inhibition of 90.8%.
On thromboxane synthetase [1], `O=C(O)CCCCCCCCCn1ccnc1` [N-(9-carboxynonyl)imidazole hydrochloride] returned an inhibition at 0.025 µM of 20.2% and an inhibition at 0.5 µM of 72.5%.
On thromboxane synthetase [1], `O=C(O)CCCCCCCCCCn1ccnc1` [N-(10-carboxydecyl)imidazole hydrochloride] registered an inhibition at 0.025 µM of 9.2% and an inhibition at 0.5 µM of 40.4%.
The corresponding values for `O=C(O)CCCCCCCCCCCn1ccnc1` [N-(11-carboxyundecyl)imidazole hydrochloride] are 13.8% and 46.8%.
Consider `c1c[nH]cn1` [imidazole], for which the “inhibitory action for thromboxane synthetase” value in the data set with thromboxane synthetase [2] was “weak”.
